Experiments:
CYP3A4 = CYP3A4 (Homo sapiens, UniProt P08684); experiment: fluorogenic CYP450 inhibition assay; assay type: biochemical
CYP2C9 = CYP2C9 (Homo sapiens, UniProt P11712); experiment: in vitro
CYP2C9, sequence (P11712 whole entry): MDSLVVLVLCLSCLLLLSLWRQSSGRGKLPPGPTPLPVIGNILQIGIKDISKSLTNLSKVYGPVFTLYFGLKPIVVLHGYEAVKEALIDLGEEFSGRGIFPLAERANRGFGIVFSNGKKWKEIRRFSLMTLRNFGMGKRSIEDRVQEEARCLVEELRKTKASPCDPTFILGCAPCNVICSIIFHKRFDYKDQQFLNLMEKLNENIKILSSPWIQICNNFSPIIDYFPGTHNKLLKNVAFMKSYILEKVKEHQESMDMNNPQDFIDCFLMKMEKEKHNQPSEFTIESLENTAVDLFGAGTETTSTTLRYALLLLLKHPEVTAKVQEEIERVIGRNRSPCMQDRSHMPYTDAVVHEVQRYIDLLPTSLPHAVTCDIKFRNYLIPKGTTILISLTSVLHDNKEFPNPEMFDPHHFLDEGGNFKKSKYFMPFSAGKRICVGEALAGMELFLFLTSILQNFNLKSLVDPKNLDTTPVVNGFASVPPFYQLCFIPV
CYP2C9, sequence (P16435 2-677 partner): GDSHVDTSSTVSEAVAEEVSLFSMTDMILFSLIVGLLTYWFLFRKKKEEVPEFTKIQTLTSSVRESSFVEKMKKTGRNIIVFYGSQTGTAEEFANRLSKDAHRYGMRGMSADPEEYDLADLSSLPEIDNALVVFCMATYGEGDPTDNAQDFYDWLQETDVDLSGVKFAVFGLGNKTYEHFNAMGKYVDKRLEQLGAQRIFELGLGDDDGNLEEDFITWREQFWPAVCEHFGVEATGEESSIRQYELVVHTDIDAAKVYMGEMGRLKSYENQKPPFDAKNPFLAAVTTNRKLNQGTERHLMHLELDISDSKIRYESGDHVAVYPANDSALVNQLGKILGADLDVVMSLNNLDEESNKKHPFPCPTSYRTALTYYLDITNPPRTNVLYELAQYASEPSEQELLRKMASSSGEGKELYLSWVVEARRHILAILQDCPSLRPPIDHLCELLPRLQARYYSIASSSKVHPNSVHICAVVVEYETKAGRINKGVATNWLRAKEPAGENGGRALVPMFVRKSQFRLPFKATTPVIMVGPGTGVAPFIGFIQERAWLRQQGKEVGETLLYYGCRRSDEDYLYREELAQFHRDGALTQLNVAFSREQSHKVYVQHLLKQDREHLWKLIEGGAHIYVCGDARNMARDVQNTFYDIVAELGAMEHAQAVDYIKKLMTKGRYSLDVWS

CYP3A4, sequence (P08684 2-503): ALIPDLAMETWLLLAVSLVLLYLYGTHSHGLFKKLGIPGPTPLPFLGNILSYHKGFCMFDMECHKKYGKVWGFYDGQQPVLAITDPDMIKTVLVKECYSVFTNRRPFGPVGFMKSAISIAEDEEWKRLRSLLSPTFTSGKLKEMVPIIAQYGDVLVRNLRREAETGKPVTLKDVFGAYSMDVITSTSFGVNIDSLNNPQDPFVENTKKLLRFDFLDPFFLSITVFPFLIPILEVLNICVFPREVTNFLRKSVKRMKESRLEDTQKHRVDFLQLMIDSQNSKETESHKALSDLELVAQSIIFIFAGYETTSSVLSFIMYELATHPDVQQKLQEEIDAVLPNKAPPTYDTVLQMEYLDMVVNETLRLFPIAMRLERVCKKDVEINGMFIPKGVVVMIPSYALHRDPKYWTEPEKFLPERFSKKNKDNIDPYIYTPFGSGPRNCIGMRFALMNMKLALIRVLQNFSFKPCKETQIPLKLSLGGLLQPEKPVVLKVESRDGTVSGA
CYP3A4, sequence (P16435 2-677 partner): as the sequence (P16435 2-677 partner) above

| Structure (SMILES) | activity at 0.1 µM (CYP3A4) | activity at 0.25 µM (CYP2C9) |
| --- | --- | --- |
| CC(=O)N1CCN(c2ccc(OC[C@H]3CO[C@](Cn4ccnc4)(c4ccc(Cl)cc4Cl)O3)cc2)CC1 (relative stereo) [ketoconazole] | < 40% |  |
| Nc1ccc(S(=O)(=O)Nc2ccnn2-c2ccccc2)cc1 [sulfaphenazole] |  | ~50% |

— article PMC5333991 (Journal of biomolecular screening, 2009)
